In patent US20030100109A1, “Methods and compositions for in vitro germination and propagation of polygonatum cirrhifolium royle” (priority 2001, published 2003):
Values joined by “and” are separate entries in the source; they are usually repeats but may differ in a detail not shown here. Identical values can stand only once.

System: Polygonatum cirrhifolium Royle seeds
Assay: Induction of germination (hypocotyl emergence) on modified MS medium with GA3 at 30° C. in dark
Assay type: in vivo
Settings: modified MS culture medium; for Percent germination: mean ± S.E.
Description: Ripe purplish berries from plants grown in the wild were collected and dehydrated for 15 days at room temperature (29° C.±2° C.). Seeds were collected from dehydrated berries and washed in tap water with 1-2 drops of Tween-20™ for 2 hours and rinsed three times in distilled water. Seeds were then surface sterilized with 0.1% mercuric chloride (HgCl2) for 3 minutes. Mercuric chloride was removed by washing seeds four times in sterile distilled water. Sterilized, rinsed seeds were placed on semi-solid culture medium in sterile disposable plastic Petri plates (10 cm×2 cm). Macro and micro nutrients in the basal medium were that of Murashige and Skoog's (Murashige, T. and Skoog, F. […]. Physiol Plant 15: 433 -497) but modified to contain 2.2 g/L NH4NO3, 2.0 g/L KNO3, 0.44 g/l CaCl2.2H2O, 0.37 g/L MgSO4.7H20, 0.17 g/L KH2PO4, 37.25 mg/L Na2 EDTA, 27.8 mg/L FeSO4.7H20, 0.83 mg/L KI, 6.2 mg/L H3BO3, 22.3 mg/L MnSO4.4H20, 8.6 mg/L ZnSO4.7H20, 0.25 mg/L Na2 MoO4.2H20, 0.025 mg/L CuSO4.5H2O, 0.025 mg/L CoCl2.6H20. This medium was supplemented with 250 mg/L myo-inosital, 0.5 mgl/l nicotinic acid, 0.5 mg/L pyridoxine HCl, 3 mg/L thiamine HCl, 2 mg/L glycine, 30 g/L sucrose, 7.5 g/L agar and 2, 10, 25, and 50 mg/L gibberellic acid. The pH of the medium was adjusted to 5.8 before adding agar. Medium was sterilized at 121° C. (15 lb. psi pressure) for 20 minutes. […] Seeds with emerged hypocotyl were transferred under aseptic conditions to the above defined basal culture medium containing gibberellic acid at 5, 25, 50 and 100 mg/L. Transferred plants were incubated in an environment having 8-16-hr days under about 2000 lux of light and about 8-16-hr nights in total darkness at a constant temperature of 20° C. ([…]) and at 50-60% RH. Illumination was provided by 40-watt cool, white fluorescent tubes. Germination synchronization as indicated by differentiated epicotyl with emergent coleoptile and radicle was recorded on daily basis. Tables 1 and 2 show the induction of germination as indicated by the emergence of hypocotyl at temperature of 30° C. (±2° C.; dark; RH 50-60%) and diurnal temperature of 30/20° C. (±2° C.; dark; RH 50-60%). Experiment consisted of 4 treatments in the form of varying levels of GA3 (2, 10, 25 and 50 mg/L) supplemented to culture medium consisting of 2.2 g/L NH4NO3, 2.0 g/L KNO3, 0.44 g/l CaCl2.2H2O, 0.37 g/L MgSO4.7H20, 0.17 g/L KH2PO4, 37.25 mg/L Na2 EDTA, 27.8 mg/L FeSO4.7H20, 0.83 mg/L KI, 6.2 mg/L H3BO3, 22.3 mg/L MnSO4.4H20, 8.6 mg/L ZnSO4.7H20, 0.25 mg/L Na2 MoO4.2H20, 0.025 mg/L CuSO4.5H2O, 0.025 mg/L CoCl2.6H20, 250 mg/L myo-inositol, 0.5 mg/L nicotinic acid, 0.5 mg/L pyridoxine HCl, 3 mg/L thiamine HCl, 2 mg/L glycine, 30 g/L sucrose and 7.5 g/L agar. Each treatment consisted of 15 replicates with 5 seeds in each. These were incubated at a constant temperature of 30° C. under continuous darkness at a RH of 60%. With the increase in GA3 concentration, there is concomitant increase in germination (Table 1). Maximum germination of 98.53% was obtained at 25 mg/L of GA3. Germination extended from 24-61 days (maximum duration) at 2 mg/L of GA3 and 7-23 days (minimum duration) at 50 mg/L of GA3 respectively.

With `C=C1C[C@]23C[C@@]1(O)CC[C@H]2[C@@]12C=C[C@H](O)[C@@](C)(C(=O)O1)[C@H]2[C@@H]3C(=O)O` [GA3, gibberellic acid] the Duration of germination (GA3 2 mg/L) was 24 to 61 days, the Percent germination (GA3 2 mg/L) was 23.69 ± 7.04 % and the Duration of germination (GA3 10 mg/L) was 19 to 53 days. For the same compound, the Percent germination (GA3 10 mg/L) was 66.18 ± 4.77%, the Duration of germination (GA3 25 mg/L) was 11 to 30 days and the Percent germination (GA3 25 mg/L) was 98.53% and 98.53 ± 3.82%. For the same compound, the Duration of germination (GA3 50 mg/L) was 7 to 23 days and the Percent germination (GA3 50 mg/L) was 97.11 ± 4.01%.
